Source: PubChem BioAssay (NCI)
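Five compound concentrations were applied to cells in 96-well plates for 48 hours; endpoints were derived by simple linear interpolation of the resulting dose-response curve. Here, GI50 denotes the concentration required for 50% inhibition of growth. TGI is the concentration that stops growth completely.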

Assays:
Experiment in all cases: NCI-60 cell line screen, 48 h
HCC-2998 colon = tested on: HCC-2998 colon
SR leukemia = tested on: SR leukemia
SN12C renal = tested on: SN12C renal
UO-31 renal = tested on: UO-31 renal
SNB-19 CNS = tested on: SNB-19 CNS
UACC-62 melanoma = tested on: UACC-62 melanoma
SF-295 CNS = tested on: SF-295 CNS
M19-MEL melanoma = tested on: M19-MEL melanoma
NCI/ADR-RES ovarian = tested on: NCI/ADR-RES ovarian
DMS 273 small cell lung = tested on: DMS 273 small cell lung

## COc1ccc(/C=C2\CCC(CN(C)C)C2=O)cc1 (stereo not given)
HCC-2998 colon
  TGI: 19.1 µM
SR leukemia
  TGI: 6.21 µM
SN12C renal
  TGI: 32.8 µM
UO-31 renal
  TGI: 15.5 µM
SNB-19 CNS
  TGI: 23.2 µM
UACC-62 melanoma
  TGI: 22.6 µM
SF-295 CNS
  TGI: 32.1 µM
M19-MEL melanoma
  TGI: 26.6 µM
NCI/ADR-RES ovarian
  TGI: 5.07 µM

## Cn1c(=O)ccc2cc(C(=O)c3ccccc3)ccc21
HCC-2998 colon
  TGI: > 100 µM
SN12C renal
  TGI: > 100 µM
SNB-19 CNS
  TGI: > 100 µM
DMS 273 small cell lung
  TGI: > 100 µM
UACC-62 melanoma
  TGI: 50.5 µM
SF-295 CNS
  TGI: > 100 µM
M19-MEL melanoma
  TGI: > 100 µM

## O=C1OC(=O)C2C1C1(c3ccccc3)OC2(c2ccccc2)c2c(Br)c(Br)c(Br)c(Br)c21 (stereo not given)
SN12C renal
  TGI: > 100 µM
UO-31 renal
  TGI: > 100 µM
SNB-19 CNS
  TGI: > 100 µM
DMS 273 small cell lung
  TGI: > 100 µM
UACC-62 melanoma
  TGI: > 100 µM
SF-295 CNS
  TGI: > 100 µM
M19-MEL melanoma
  TGI: > 100 µM

## CC12CCC(C)(c3cc(O)c(O)cc31)c1cc(O)c(O)cc12
HCC-2998 colon
  TGI: 33.6 µM
SN12C renal
  TGI: 48.6 µM
UO-31 renal
  TGI: 43.5 µM
SNB-19 CNS
  TGI: 30.2 µM
DMS 273 small cell lung
  TGI: 37.5 µM
UACC-62 melanoma
  TGI: 36.2 µM
SF-295 CNS
  TGI: 46.8 µM
M19-MEL melanoma
  TGI: 31.6 µM

## Cc1ccc(Sc2cc([N+](=O)[O-])cc(Sc3ccc(C)cc3)c2Sc2ccc(C)cc2)cc1
HCC-2998 colon
  TGI: > 100 µM
SN12C renal
  TGI: > 100 µM
UO-31 renal
  TGI: > 100 µM
SNB-19 CNS
  TGI: > 100 µM
DMS 273 small cell lung
  TGI: > 100 µM
UACC-62 melanoma
  TGI: > 100 µM
SF-295 CNS
  TGI: > 100 µM
M19-MEL melanoma
  TGI: > 100 µM

## Cn1c(=O)c2nc3sc4ccccc4c(=N)n3c2n(C)c1=O
HCC-2998 colon
  TGI: > 100 µM
SR leukemia
  TGI: > 100 µM
SN12C renal
  TGI: > 100 µM
UO-31 renal
  TGI: > 100 µM
SNB-19 CNS
  TGI: > 100 µM
DMS 273 small cell lung
  TGI: > 100 µM
UACC-62 melanoma
  TGI: > 100 µM
SF-295 CNS
  TGI: > 100 µM
M19-MEL melanoma
  TGI: > 100 µM

## Fc1cccc(C2SCc3nc4ccccc4n32)c1 (stereo not given)
HCC-2998 colon
  TGI: > 100 µM
SR leukemia
  TGI: > 100 µM
SN12C renal
  TGI: > 100 µM
UO-31 renal
  TGI: > 100 µM
SNB-19 CNS
  TGI: > 100 µM
DMS 273 small cell lung
  TGI: > 100 µM
UACC-62 melanoma
  TGI: > 100 µM
SF-295 CNS
  TGI: > 100 µM
M19-MEL melanoma
  TGI: > 100 µM

## CC(=O)NC1C(OCc2ccccc2)OC(COC(=O)CCCCCCCCCCNC(=O)CCNc2ccc([N+](=O)[O-])c3[nH]c4ccc(O)cc4c(=O)c23)C(O)C1OC(C)C(=O)N[C@H](C(=O)N[C@H](CCC(=O)O)C(N)=O)C(C)C (stereo not given in full)
HCC-2998 colon
  TGI: > 100 µM
SR leukemia
  TGI: 45.4 µM
SN12C renal
  TGI: > 100 µM
UO-31 renal
  TGI: > 100 µM
SNB-19 CNS
  TGI: > 100 µM
DMS 273 small cell lung
  TGI: > 100 µM
UACC-62 melanoma
  TGI: > 100 µM
SF-295 CNS
  TGI: > 100 µM
M19-MEL melanoma
  TGI: > 100 µM

## NCCCSCC(=O)O
HCC-2998 colon
  TGI: > 100 µM
SN12C renal
  TGI: > 100 µM
UO-31 renal
  TGI: > 100 µM
SNB-19 CNS
  TGI: > 100 µM
DMS 273 small cell lung
  TGI: > 100 µM
UACC-62 melanoma
  TGI: > 100 µM
SF-295 CNS
  TGI: > 100 µM
M19-MEL melanoma
  TGI: > 100 µM

## O=CN/C=C\c1cc(O)ccc1O
HCC-2998 colon
  TGI: > 100 µM
SR leukemia
  TGI: 21.3 µM
SN12C renal
  TGI: 28.9 µM
UO-31 renal
  TGI: 29.1 µM
SNB-19 CNS
  TGI: > 100 µM
DMS 273 small cell lung
  TGI: > 41.1 µM
UACC-62 melanoma
  TGI: 17.5 µM
SF-295 CNS
  TGI: > 100 µM
M19-MEL melanoma
  TGI: 40.2 µM

## CC(=O)Oc1cc(OC(C)=O)c(OC(C)=O)c2c1CC1C(=O)C3(CCc4ccccc43)C(=O)C1C2 (stereo not given)
HCC-2998 colon
  TGI: 25.2 µM
SN12C renal
  TGI: 31 µM
UO-31 renal
  TGI: 36.6 µM
DMS 273 small cell lung
  TGI: 34.9 µM
UACC-62 melanoma
  TGI: 31.3 µM
SF-295 CNS
  TGI: 17.3 µM
M19-MEL melanoma
  TGI: 30.1 µM

## O=c1cc(/C=C/c2ccccc2)c2ccc(O/C(=C\c3ccccc3)c3nc4ccccc4c(=O)o3)cc2o1
HCC-2998 colon
  TGI: > 100 µM
SN12C renal
  TGI: > 100 µM
SNB-19 CNS
  TGI: > 100 µM
DMS 273 small cell lung
  TGI: > 100 µM
UACC-62 melanoma
  TGI: > 100 µM
SF-295 CNS
  TGI: > 100 µM
M19-MEL melanoma
  TGI: 91 µM

## NC1=C(O)/C(=N/NS(=O)(=O)c2ccccc2)C(c2cccc(Cl)c2)O1 (stereo not given)
HCC-2998 colon
  TGI: > 100 µM
SR leukemia
  TGI: 9.15 µM
SN12C renal
  TGI: > 67.2 µM
UO-31 renal
  TGI: 33.5 µM
SNB-19 CNS
  TGI: > 100 µM
DMS 273 small cell lung
  TGI: > 100 µM
UACC-62 melanoma
  TGI: 66.7 µM
SF-295 CNS
  TGI: > 100 µM
M19-MEL melanoma
  TGI: > 57.2 µM

## O=C1OC(/C=C/c2ccccc2)C(=O)C1=O (stereo not given)
HCC-2998 colon
  TGI: > 100 µM
UO-31 renal
  TGI: > 100 µM
SNB-19 CNS
  TGI: > 100 µM
DMS 273 small cell lung
  TGI: > 100 µM
UACC-62 melanoma
  TGI: > 100 µM
SF-295 CNS
  TGI: > 100 µM
M19-MEL melanoma
  TGI: > 100 µM

## CCC1(O)CC(c2ccccc2)N(C)C(c2ccccc2)C1 (stereo not given)
HCC-2998 colon
  TGI: > 100 µM
SN12C renal
  TGI: > 100 µM
UO-31 renal
  TGI: > 100 µM
SNB-19 CNS
  TGI: > 100 µM
DMS 273 small cell lung
  TGI: > 100 µM
UACC-62 melanoma
  TGI: > 100 µM
SF-295 CNS
  TGI: > 100 µM
M19-MEL melanoma
  TGI: > 100 µM

## C=C1[C@@H]2CCC(C)(C)[C@H]1CCC(=O)[C@@H]2C(=O)OC
HCC-2998 colon
  TGI: > 100 µM
SR leukemia
  TGI: > 100 µM
SN12C renal
  TGI: > 100 µM
UO-31 renal
  TGI: > 100 µM
SNB-19 CNS
  TGI: > 100 µM
DMS 273 small cell lung
  TGI: > 100 µM
UACC-62 melanoma
  TGI: > 100 µM
SF-295 CNS
  TGI: > 100 µM
M19-MEL melanoma
  TGI: > 100 µM

## CC1(C)OC(=O)C(c2ccsc2)C(=O)O1
HCC-2998 colon
  TGI: > 100 µM
SR leukemia
  TGI: > 100 µM
SN12C renal
  TGI: > 100 µM
UO-31 renal
  TGI: > 100 µM
SNB-19 CNS
  TGI: > 100 µM
DMS 273 small cell lung
  TGI: > 100 µM
UACC-62 melanoma
  TGI: > 100 µM
SF-295 CNS
  TGI: > 100 µM
M19-MEL melanoma
  TGI: > 100 µM

## O=C(c1ccccc1)C(c1ccccc1)C1(O)C(=O)Nc2ccc(Br)cc21 (stereo not given)
HCC-2998 colon
  TGI: > 100 µM
SR leukemia
  TGI: > 100 µM
SN12C renal
  TGI: > 100 µM
UO-31 renal
  TGI: > 100 µM
SNB-19 CNS
  TGI: > 100 µM
DMS 273 small cell lung
  TGI: > 100 µM
UACC-62 melanoma
  TGI: 39.2 µM
SF-295 CNS
  TGI: > 100 µM
M19-MEL melanoma
  TGI: 30.6 µM

## C[C@]12CC[C@H](O)CC1CCC[C@@H]2O (stereo not given in full)
HCC-2998 colon
  TGI: > 100 µM
SN12C renal
  TGI: > 100 µM
UO-31 renal
  TGI: > 100 µM
SNB-19 CNS
  TGI: > 100 µM
DMS 273 small cell lung
  TGI: > 100 µM
UACC-62 melanoma
  TGI: > 100 µM
SF-295 CNS
  TGI: > 100 µM

## O=C1C2Cc3ccccc3CN2C(=O)N1CCN1CCOCC1 (stereo not given)
HCC-2998 colon
  TGI: > 100 µM
SR leukemia
  TGI: > 100 µM
SN12C renal
  TGI: > 100 µM
UO-31 renal
  TGI: > 100 µM
SNB-19 CNS
  TGI: > 100 µM
DMS 273 small cell lung
  TGI: > 100 µM
UACC-62 melanoma
  TGI: > 100 µM
SF-295 CNS
  TGI: > 100 µM
M19-MEL melanoma
  TGI: > 100 µM

## COc1ccc(-n2cc(-c3ccc(F)cc3)[nH]c2=O)cc1OC
HCC-2998 colon
  GI50: > 100 µM
  TGI: > 100 µM
SR leukemia
  GI50: > 100 µM
  TGI: > 100 µM
SN12C renal
  GI50: 58 µM
  TGI: > 100 µM
UO-31 renal
  GI50: > 100 µM
  TGI: > 100 µM
SNB-19 CNS
  GI50: > 100 µM
  TGI: > 100 µM
UACC-62 melanoma
  GI50: > 100 µM
  TGI: > 100 µM
SF-295 CNS
  GI50: > 100 µM
  TGI: > 100 µM
NCI/ADR-RES ovarian
  GI50: > 100 µM
  TGI: > 100 µM

## O=c1c2ccc(Br)cc2nc(-c2ccccc2)n1NC1OC(CO)C(O)C(O)C1O (stereo not given)
HCC-2998 colon
  TGI: > 100 µM
SN12C renal
  TGI: > 100 µM
UO-31 renal
  TGI: > 100 µM
SNB-19 CNS
  TGI: > 100 µM
DMS 273 small cell lung
  TGI: > 100 µM
UACC-62 melanoma
  TGI: > 100 µM
SF-295 CNS
  TGI: > 100 µM
M19-MEL melanoma
  TGI: > 100 µM

## O=c1c(-c2nc3ccccc3[nH]2)cc2ccccc2n1Cc1cn(Cc2ccc(F)cc2)nn1
HCC-2998 colon
  GI50: 0.203 µM
  TGI: 3.31 µM
SR leukemia
  GI50: 0.0732 µM
  TGI: > 100 µM
SN12C renal
  GI50: 0.203 µM
  TGI: > 100 µM
UO-31 renal
  GI50: 0.327 µM
  TGI: > 100 µM
SNB-19 CNS
  GI50: 0.305 µM
  TGI: 25.2 µM
UACC-62 melanoma
  GI50: 0.437 µM
  TGI: 50.7 µM
SF-295 CNS
  GI50: 0.253 µM
  TGI: 11 µM
NCI/ADR-RES ovarian
  GI50: 1.28 µM
  TGI: 19.2 µM

## COc1cc(-c2cc(C(=O)N3CCN(C(=O)c4ccccc4NCc4cccs4)CC3)nc3cc(-c4ccccc4)nn23)cc(OC)c1OC
HCC-2998 colon
  GI50: 14.3 µM
  TGI: > 100 µM
SR leukemia
  GI50: 3.31 µM
  TGI: > 100 µM
SN12C renal
  GI50: 29.1 µM
  TGI: > 100 µM
UO-31 renal
  GI50: 6.99 µM
  TGI: > 100 µM
SNB-19 CNS
  GI50: 8.99 µM
  TGI: > 100 µM
UACC-62 melanoma
  GI50: 2.8 µM
  TGI: > 100 µM
SF-295 CNS
  GI50: 3.78 µM
  TGI: > 100 µM
NCI/ADR-RES ovarian
  GI50: 2.6 µM
  TGI: 9.29 µM
